Assay results as given in US20070249635A1, “Fungicidal Mixtures Based on a Triazolopyrimidine Derivative and a Conazole” (BASF Aktiengesellschaft, priority 2003, published 2007).

Tested on: Plasmopara viticola
Test: activity against peronospora of grapevines caused by Plasmopara viticola (protective spray on potted vines, cultivar Riesling)
Type: in vivo
Settings: individual active compound, untreated control 90% infection
Experimental: The active compounds, separately or jointly, were prepared as a stock solution comprising 0.25% by weight of active compound in acetone or DMSO. 1 % by weight of the emulsifier Uniperol® EL (wetting agent having emulsifying and dispersant action based on ethoxylated alkylphenols) was added to this solution, and the mixture was diluted with water to the desired concentration.
Use example—activity against peronospora of gravevines caused by Plasmopara viticola
Leaves of potted vines of the cultivar “Riesling” were sprayed to runoff point with an aqueous suspension having the concentration of active compound stated below. The next day, the undersides of the leaves were inoculated with an aqueous zoospore suspension of Plasmopara viticola. The grapevines were then initially placed in a water-vapor-saturated chamber at 24° C. for 48 hours and then in a greenhouse at 20-30° C. for 5 days. After this period of time, the plants were again placed in a humid chamber for 16 hours to promote sporangiophore eruption. The extent of the development of the disease on the undersides of the leaves was then determined visually.
The visually determined percentages of infected leaf areas were converted into efficacies as % of the untreated control:
The efficacy (E) is calculated as follows using Abbot's formula: E=(1−α/β)·100 • α corresponds to the fungicidal infection of the treated plants in % and • β corresponds to the fungicidal infection of the untreated (control) plants in %
An efficacy of 0 means that the infection level of the treated plants corresponds to that of the untreated control plants; an efficacy of 100 means that the treated plants were not infected.
The expected efficacies of combinations of active compounds were determined using Colby's formula (Colby, S.R. “Calculating synergistic and antagonistic responses of herbicide combinations”, Weeds, 15, 20-22, 1967) and compared with the observed efficacies. Colby's formula: E=x+y−x·y/100 • E expected efficacy, expressed in % of the untreated control, when using the mixture of the active compounds A and B at the concentrations a and b • x efficacy, expressed in % of the untreated control, when using the active compound A at the concentration a • y efficacy, expressed in % of the untreated control, when using the active compound B at the concentration b

Row | Compound | Efficacy in % of the untreated control (1 ppm in the spray liquor) | Efficacy in % of the untreated control (4 ppm in the spray liquor) | Efficacy in % of the untreated control (16 ppm in the spray liquor)
1 | CC(C1CC1)C(O)(Cn1cncn1)c1ccc(Cl)cc1 (stereo not drawn) [II, 2-(4-chlorophenyl)-3-cyclopropyl-1-[1,2,4]triazol-1-ylbutan-2-ol] | 0% | 0% | 0%
2 | CC1CCN(c2c(-c3c(F)cc(F)cc3F)c(Cl)nc3ncnn23)CC1 [I, 5-chloro-7-(4-methylpiperidin-1-yl)-6-(2,4,6-trifluorophenyl)-[1,2,4]triazolo[1,5-a]pyrimidine] |  | 56% | 
3 | CC1CCN(c2c(-c3c(F)cccc3Cl)c(Cl)nc3ncnn23)CC1 [A] |  | 11% | 
4 | C[C@H](Nc1c(-c2c(F)cc(F)cc2F)c(Cl)nc2ncnn12)C(F)(F)F [B] |  | 11% | 
